Assay results: article PMC12024912, “Druggability Studies of Benzene Sulfonamide Substituted Diarylamide (E3) as a Novel Diuretic” (Biomedicines, 2025)
Like-named read-outs stand apart in the source and are kept apart here.

What was measured:
UT-B [1] = molecular target: T1, UT-B (Rattus norvegicus, UniProt P97689); assay: Erythrocyte lysis assay for UT-B inhibition, rat erythrocytes; assay type: cell-based
T1 construct: endogenous in cells; host or cells: erythrocytes from male SD rats
T1 sequence (P97689 1-384): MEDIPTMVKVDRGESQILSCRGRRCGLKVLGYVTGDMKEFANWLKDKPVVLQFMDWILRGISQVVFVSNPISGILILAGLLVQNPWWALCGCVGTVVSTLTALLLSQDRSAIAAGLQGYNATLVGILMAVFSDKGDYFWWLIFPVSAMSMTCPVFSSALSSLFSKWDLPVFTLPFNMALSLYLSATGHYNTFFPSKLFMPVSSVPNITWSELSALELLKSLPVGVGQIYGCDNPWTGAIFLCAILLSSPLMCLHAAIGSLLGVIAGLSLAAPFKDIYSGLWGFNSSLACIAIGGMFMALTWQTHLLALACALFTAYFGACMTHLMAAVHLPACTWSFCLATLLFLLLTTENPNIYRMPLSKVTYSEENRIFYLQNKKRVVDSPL
Method: The erythrocyte lysis assay was modified from a method described previously. Erythrocytes obtained from veins were diluted to a hematocrit value of 2% in hyperosmolar PBS containing 1.25 mol/L urea and 5 mmol/L glucose and incubated at r.t. for 2 h. Then, 99 μL erythrocyte suspension from a reservoir was added to each well of a 96-well round-bottom microplate, then 1 μL of the testing compound (500, 125, 31.25, 7.81, 1.95, 0.488, 0.122, 0.031, 0.0076 μmol/L dissolved in DMSO) was added to erythrocyte suspension and shook it up with microoscillator for 1 min. Following 5 min incubation, 20 μL erythrocyte suspension was transferred into 96-well black microplates preloaded with 180 μL isotonic PBS (10 mM, urea-free). Erythrocyte lysis was monitored at 710 nm optical density (OD710) for 6 min, with lysis rates calculated using control values from the same plate as Equation (1):Lysis (%) = 100 × (Aneg − Atest)/(Aneg − Apos)(1) where Atest is the absorbance value from the test well, Aneg is from a negative no-lysis control well, and Apos is from a positive full-lysis control.

UT-B [2] = molecular target: T1, UT-B; assay: Stopped-flow measurement of erythrocyte urea permeability; assay type: cell-based
Method: Erythrocyte urea permeabilities were assessed via stopped-flow light scattering (SX20, Applied Photophysics, Leatherhead, UK) following established protocols. Erythrocyte was acquired from rat blood and suspended in isotonic PBS (hematocrit 0.5%). Then, the erythrocyte was incubated with test compounds for 5 min and quickly mixed with 500 mmol/L urea dissolved in PBS. Following an initial osmotic shrinking phase, the kinetics of cell volume increase due to urea influx were measured by monitoring the time course of 90° scattered light intensity at 530 nm. […] Keep samples and PBS at 4 °C to reduce the influence of free diffusion. To assay reversibility, compounds were added to erythrocytes for 5 min and then washed with PBS 3 times by 2000 r/min centrifugation before stopped-flow measurements. To determine inhibition on urea efflux, erythrocytes were incubated with 500 mmol/L urea in PBS for 2 h, then mixed with PBS without urea.

[3] = Stability in simulated gastric fluid (SGF) and simulated intestinal fluid (SIF); assay type: in vitro ADME; settings: 1 μmol/L; 37 °C; after 4 h
Method: (§1) Plasma from mice, rats, rabbits, and humans was obtained from blood after centrifugation at 3000 r/min for 10 min. Simulated gastric fluid (SGF, pH = 1, containing pepsin) and simulated intestinal fluid (SIF, pH = 6.8, containing trypsin) were configured previously in the experiments. SD rats and mice were collected, and after removing the mucus layer from the small intestine and colon, 20 times the volume of liquid bacterial culture medium was added. An intestinal microbiota suspension was obtained after anaerobic cultivation on a shaking table at 37 °C for 12 h. In the aforementioned systems, E3 was added at a final concentration of 1 μmol/L at 37 °C for different incubation times (0, 10, 20, 30, 60, 120, and 240 min). In liver metabolic stability assays, E3 was incubated with liver microsomes or liver homogenate from mice or rats for 60 min at 37 °C. The stop solution, 5 ng/mL tolbutamide (internal standard, IS) in acetonitrile, was added to stop the metabolic process. Post-centrifugation (18,000× g, 10 min, 4 °C), supernatants were subjected to liquid chromatography–tandem mass spectrometry (LC–MS/MS). Analyte-to-IS peak area ratios quantified residual percentages via Equation (2):Remaining% = (E3peak area/ISpeak area at different time)/(E3peak area/ISpeak area at 0 min) × 100%.(2)

[4] = Liver homogenate metabolic stability, mouse; assay type: in vitro ADME
Method: as §1

SD rats = assay: Diuretic effect of single intragastric administration in rats (metabolic cages); assay type: in vivo, rat
Method: In a single-dose administration experiment, male wild-type (WT) mice, UT-B^-/- mice, UT-A1^-/- mice, or SD rats were adapted in metabolic cages for 3 d. Food and water were provided ad libitum throughout the experiment. Prior to administration, the bladder of each animal was emptied through gentle abdominal massage, and urine was collected from the metabolic cages every 2 h. Compound E3, suspended in 0.5% CMC-Na at an appropriate concentration, was administered intragastric gavage to the mice or rats (0.16, 0.8, 4, or 20 mg/kg). Vehicle control comprised 0.5% (w/v) CMC-Na. Urinary parameters were determined through the following: volume: Gravimetric analysis (1 g/mL density assumption); osmolality: freezing-point osmometry (Micro-osmometer, […] Associates, Norwood, MA, USA); and urea: diacetyl oxime colorimetry (QuantiChrom® kit, Elabscience, Wuhan, China). In long-term (7 d) diuretic activity experiments, male WT mice, UT-B^-/- mice, UT-A1^-/- mice, and SD rats were acclimatized in metabolic cages (Ugo Basile, Comerio, VA, Italy) for 3 d. Food and water were provided ad libitum throughout the experiment. E3 was suspended in 0.5% CMC-Na and administered at a dose of 4 or 20 mg/kg by intragastric gavage. Urine was collected by metabolic cages every 24 h. Body weight was measured daily. At 4 h after the final administration, a blood sample was obtained by heart puncture. Inner medulla and outer medulla tissue homogenates were prepared, and the supernatant after centrifugation was analyzed for solute concentration and osmolality. Urinary osmolality and urea concentration were measured as above. Serum Na^+, K^+, and Cl^- were measured in a clinical chemistry laboratory, while serum creatinine, ALT, and AST were measured through specific reagent kits (NJJC Bio, Nanjing, China).

[5] = Liver homogenate metabolic stability, rat; assay type: in vitro ADME
Method: as §1

What does the source list for `CC(=O)c1ccc(C(=O)Nc2cccc(NS(=O)(=O)c3ccccc3)c2)o1` [Compound E3, 5-acetyl-N-(3-(phenylsulfonamido)phenyl)furan-2-carboxamide]?
maximum inhibition rate, rat cells (UT-B [1]; erythrocyte lysis assay): approximately 100%; IC50 (UT-B [1]; erythrocyte lysis model, rat, n = 3, means, read-out: IC50 (μM) Rat): 0.01 µM; IC50 (UT-B [1]; red blood cell lysis assay, read-out: IC50 for UT-B-promoted urea transport, rats): 0.0076 µM; reversibility of UT-B inhibition (UT-B [2]; 1 μM followed by washout with PBS): reversible; UT-B-mediated urea influx into erythrocytes (UT-B [2]; stopped-flow light scattering, rat erythrocytes): dose-dependently inhibit; UT-B-mediated urea efflux (UT-B [2]; stopped-flow, erythrocytes preloaded with high urea, mixed with isotonic PBS): inhibited UT-B-mediated urea efflux in a dose-dependent manner; E3 remaining in SGF (pH 1.0) and SIF (pH 6.8) [3]: More than 90%; CLhep, mouse liver homogenate ([4]; calculated with 45 mg/g liver, 50 g liver/kg): 99.3 mL/min/kg; remaining at 1 h ([4]; mouse, liver homogenate, 60 min incubation, 37 °C, n=3): 39.8%; urinary osmolality (SD rats; single intragastric gavage): decreased; urinary urea (SD rats; single intragastric gavage): decreased; urine output (SD rats; single intragastric gavage 0.16-20 mg/kg, vs vehicle): significantly increased; excretion of non-urea solutes (SD rats; single intragastric gavage, vs control): not significantly different; CLhep, rat liver homogenate ([5]; calculated with 45 mg/g liver, 40 g liver/kg): 46.4 mL/min/kg; remaining at 1 h ([5]; rat, liver homogenate, 60 min incubation, 37 °C, n=3): 69%
